In patent publication US12686673B2 (Blueprint Medicines Corporation, priority 2020, dated 2026):
pIC50: −log10 of the molar value. Where two headings read alike, the source gives them in different places.

Assays:
Format in all cases: cell-based
[1] = biological target: EGFR(D770_N771insSVD) expressing Ba/F3 stable cell line (Homo sapiens, UniProt P00533, DUP768-770, cells depend on it); assay: Cellular proliferation (Alamar Blue) assay, EGFR D770_N771insSVD Ba/F3; conditions: 72 hr, read-out: D770 IC50
Sequence of EGFR(D770_N771insSVD) expressing Ba/F3 stable cell line (P00533 with tags, fused parts or gaps DUP768-770): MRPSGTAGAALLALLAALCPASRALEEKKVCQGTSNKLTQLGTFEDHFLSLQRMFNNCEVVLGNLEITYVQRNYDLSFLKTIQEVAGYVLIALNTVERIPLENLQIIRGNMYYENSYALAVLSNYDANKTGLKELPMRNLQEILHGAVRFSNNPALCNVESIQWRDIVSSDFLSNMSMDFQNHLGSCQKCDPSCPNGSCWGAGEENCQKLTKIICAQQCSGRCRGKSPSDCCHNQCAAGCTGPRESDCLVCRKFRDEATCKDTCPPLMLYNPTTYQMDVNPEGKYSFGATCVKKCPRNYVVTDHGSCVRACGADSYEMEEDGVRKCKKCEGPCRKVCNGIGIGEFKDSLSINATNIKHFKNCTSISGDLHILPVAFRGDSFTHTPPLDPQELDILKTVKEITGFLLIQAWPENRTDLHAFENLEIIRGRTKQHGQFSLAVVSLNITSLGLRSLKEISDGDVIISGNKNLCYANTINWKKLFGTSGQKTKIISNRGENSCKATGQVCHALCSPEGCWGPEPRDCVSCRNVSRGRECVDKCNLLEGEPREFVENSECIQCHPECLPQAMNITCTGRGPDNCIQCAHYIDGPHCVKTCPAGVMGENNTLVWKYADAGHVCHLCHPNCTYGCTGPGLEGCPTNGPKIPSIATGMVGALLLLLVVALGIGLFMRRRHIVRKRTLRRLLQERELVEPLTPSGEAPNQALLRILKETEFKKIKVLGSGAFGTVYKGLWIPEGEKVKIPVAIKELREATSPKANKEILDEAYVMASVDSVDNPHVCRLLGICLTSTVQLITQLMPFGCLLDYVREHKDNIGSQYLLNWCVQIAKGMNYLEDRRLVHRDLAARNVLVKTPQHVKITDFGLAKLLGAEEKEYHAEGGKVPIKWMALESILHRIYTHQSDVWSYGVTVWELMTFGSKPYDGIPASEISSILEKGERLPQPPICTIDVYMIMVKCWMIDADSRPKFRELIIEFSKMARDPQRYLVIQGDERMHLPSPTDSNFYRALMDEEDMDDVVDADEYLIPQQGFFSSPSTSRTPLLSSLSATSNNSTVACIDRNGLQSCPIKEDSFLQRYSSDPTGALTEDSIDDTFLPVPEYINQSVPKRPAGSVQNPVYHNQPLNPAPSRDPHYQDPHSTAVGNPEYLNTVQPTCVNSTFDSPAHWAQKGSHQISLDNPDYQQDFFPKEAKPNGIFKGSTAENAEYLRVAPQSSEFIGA
Procedure, shortened: (§1)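 Each stable Ba/F3 line, cultured in RPMI with 10% FBS at 15,000 cells per well, received a threefold compound series (final top 10 μM, bottom 0.0005 μM) for 72 hr at 37 degree Celsius, then Alamar Blue for 3 h.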

[2] = biological target: EGFR (A767_dupASV) expressing Ba/F3 stable cell line (Homo sapiens, UniProt P00533, DUP767-769, cells depend on it); assay: Cellular proliferation (Alamar Blue) assay, EGFR A767_dupASV Ba/F3; conditions: 72 hr, read-out: A767 IC50
Sequence of EGFR (A767_dupASV) expressing Ba/F3 stable cell line (P00533 with tags, fused parts or gaps DUP767-769): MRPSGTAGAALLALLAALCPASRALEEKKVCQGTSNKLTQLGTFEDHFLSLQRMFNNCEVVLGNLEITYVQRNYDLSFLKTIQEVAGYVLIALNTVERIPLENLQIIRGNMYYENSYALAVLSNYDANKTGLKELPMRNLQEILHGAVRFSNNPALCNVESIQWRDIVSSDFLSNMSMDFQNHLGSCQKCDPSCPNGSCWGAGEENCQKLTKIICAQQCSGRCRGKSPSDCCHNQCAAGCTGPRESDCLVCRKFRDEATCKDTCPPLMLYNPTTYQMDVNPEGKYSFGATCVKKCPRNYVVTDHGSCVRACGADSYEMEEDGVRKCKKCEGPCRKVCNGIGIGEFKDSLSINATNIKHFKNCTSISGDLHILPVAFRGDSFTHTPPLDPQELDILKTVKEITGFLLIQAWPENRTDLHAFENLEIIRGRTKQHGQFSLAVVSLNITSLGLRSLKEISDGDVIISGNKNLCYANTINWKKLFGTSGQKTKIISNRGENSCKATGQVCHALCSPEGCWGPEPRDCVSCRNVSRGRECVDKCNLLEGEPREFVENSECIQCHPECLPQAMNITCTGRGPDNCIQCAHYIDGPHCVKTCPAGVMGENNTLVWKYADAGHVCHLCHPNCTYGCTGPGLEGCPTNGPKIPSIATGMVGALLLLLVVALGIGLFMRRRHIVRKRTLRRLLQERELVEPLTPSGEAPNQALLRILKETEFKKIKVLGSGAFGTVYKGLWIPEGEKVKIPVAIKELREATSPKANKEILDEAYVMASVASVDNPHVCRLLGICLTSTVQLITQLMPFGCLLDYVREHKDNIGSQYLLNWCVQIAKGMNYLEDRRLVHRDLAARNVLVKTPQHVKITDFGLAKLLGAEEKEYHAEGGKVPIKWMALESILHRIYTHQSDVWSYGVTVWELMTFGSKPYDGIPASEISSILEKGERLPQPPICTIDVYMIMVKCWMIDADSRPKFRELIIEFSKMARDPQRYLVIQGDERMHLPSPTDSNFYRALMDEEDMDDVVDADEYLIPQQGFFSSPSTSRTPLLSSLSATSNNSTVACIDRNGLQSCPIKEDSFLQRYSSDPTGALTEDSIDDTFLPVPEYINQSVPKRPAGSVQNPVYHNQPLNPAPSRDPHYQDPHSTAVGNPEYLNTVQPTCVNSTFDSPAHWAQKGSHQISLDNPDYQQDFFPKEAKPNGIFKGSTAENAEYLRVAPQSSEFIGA
Procedure, shortened: as §1

A431 cells = assay: Cellular proliferation (Alamar Blue) assay, A431
[3] = biological target: EGFR (H773insNPH) expressing Ba/F3 stable cell line (Homo sapiens, UniProt P00533, DUP771-773, cells depend on it); assay: Cellular proliferation (Alamar Blue) assay, EGFR H773insNPH Ba/F3; conditions: 72 hr, read-out: NPH IC50
Sequence of EGFR (H773insNPH) expressing Ba/F3 stable cell line (P00533 with tags, fused parts or gaps DUP771-773): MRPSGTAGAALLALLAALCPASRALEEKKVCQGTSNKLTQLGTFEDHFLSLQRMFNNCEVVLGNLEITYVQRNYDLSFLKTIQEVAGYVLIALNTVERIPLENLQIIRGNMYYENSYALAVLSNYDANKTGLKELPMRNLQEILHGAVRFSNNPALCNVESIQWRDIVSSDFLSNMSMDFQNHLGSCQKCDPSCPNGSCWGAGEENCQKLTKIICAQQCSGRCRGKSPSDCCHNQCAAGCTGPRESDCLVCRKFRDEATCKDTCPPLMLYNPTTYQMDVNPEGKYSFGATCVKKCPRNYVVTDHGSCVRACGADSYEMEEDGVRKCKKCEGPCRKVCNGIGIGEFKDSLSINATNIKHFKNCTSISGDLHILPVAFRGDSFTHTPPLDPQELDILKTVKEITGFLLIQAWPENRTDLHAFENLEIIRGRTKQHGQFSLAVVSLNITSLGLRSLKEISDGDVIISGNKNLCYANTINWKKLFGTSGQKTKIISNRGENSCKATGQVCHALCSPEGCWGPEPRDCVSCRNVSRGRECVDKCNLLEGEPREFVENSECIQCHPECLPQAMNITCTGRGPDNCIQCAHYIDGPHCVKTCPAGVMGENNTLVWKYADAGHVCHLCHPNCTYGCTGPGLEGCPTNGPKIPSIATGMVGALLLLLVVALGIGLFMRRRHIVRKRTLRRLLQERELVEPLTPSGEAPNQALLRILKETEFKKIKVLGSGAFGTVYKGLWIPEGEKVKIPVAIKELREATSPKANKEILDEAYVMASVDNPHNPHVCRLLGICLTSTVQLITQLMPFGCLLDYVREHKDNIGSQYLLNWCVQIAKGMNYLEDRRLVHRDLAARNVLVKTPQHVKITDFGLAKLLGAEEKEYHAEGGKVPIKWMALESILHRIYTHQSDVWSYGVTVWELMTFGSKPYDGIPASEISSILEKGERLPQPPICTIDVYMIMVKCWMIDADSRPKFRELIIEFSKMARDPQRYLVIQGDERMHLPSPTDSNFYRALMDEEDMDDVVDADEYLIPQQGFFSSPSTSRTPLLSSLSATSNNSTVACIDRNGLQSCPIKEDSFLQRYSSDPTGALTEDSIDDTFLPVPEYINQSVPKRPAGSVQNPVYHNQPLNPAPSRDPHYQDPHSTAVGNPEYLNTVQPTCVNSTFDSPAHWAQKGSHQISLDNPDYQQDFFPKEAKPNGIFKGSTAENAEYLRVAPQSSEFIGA
Procedure, shortened: as §1

[4] = biological target: HER2 (A775_G776insYVMA) expressing Ba/F3 stable cell line (Homo sapiens, UniProt P04626, DUP772-775, cells depend on it); assay: Cellular proliferation (Alamar Blue) assay, HER2 A775_G776insYVMA Ba/F3; conditions: 72 hr, read-out: YVMA IC50
Sequence of HER2 (A775_G776insYVMA) expressing Ba/F3 stable cell line (P04626 with tags, fused parts or gaps DUP772-775): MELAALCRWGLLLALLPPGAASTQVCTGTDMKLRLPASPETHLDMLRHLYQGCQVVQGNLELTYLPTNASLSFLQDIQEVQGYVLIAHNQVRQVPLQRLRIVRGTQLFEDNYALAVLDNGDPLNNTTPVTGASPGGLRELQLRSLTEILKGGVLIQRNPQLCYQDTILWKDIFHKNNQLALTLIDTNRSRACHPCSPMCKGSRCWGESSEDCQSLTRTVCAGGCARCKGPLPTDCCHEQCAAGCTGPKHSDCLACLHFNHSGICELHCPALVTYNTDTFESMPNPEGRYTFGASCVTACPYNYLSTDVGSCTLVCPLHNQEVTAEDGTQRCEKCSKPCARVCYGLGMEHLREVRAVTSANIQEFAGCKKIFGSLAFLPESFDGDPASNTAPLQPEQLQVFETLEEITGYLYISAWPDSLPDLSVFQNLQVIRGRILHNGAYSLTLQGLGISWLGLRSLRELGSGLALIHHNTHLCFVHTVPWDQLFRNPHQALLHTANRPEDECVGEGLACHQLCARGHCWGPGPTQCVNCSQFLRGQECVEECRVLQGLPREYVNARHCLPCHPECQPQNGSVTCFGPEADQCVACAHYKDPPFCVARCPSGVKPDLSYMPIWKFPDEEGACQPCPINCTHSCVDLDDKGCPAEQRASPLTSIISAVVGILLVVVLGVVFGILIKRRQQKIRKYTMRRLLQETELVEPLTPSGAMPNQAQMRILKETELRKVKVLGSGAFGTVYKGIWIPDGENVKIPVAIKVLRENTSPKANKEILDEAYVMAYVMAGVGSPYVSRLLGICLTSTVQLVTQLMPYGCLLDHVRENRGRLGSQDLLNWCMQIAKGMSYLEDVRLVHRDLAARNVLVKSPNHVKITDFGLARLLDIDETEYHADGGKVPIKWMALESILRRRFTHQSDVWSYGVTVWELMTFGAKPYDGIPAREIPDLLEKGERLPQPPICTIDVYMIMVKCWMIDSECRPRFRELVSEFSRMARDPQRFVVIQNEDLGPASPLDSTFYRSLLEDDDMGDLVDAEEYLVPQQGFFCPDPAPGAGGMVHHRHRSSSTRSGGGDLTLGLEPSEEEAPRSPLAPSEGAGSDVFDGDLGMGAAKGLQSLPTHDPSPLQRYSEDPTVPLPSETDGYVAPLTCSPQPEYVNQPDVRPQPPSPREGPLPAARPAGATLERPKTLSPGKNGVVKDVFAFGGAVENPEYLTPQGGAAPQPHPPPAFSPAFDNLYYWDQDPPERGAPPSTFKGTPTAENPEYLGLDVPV
Procedure, shortened: as §1

[5] = Homo sapiens, A-431; A431 cells, Alamar Blue, 72 hr; read-out: A431 IC50
[6] = Homo sapiens, A-431; A431 cells, 72 hr, Alamar Blue; read-out: A431 IC50

Row | GI50 [1] [µM] | GI50 [2] [µM] | pIC50 (A431 cells; [5]) | GI50 [3] [µM] | GI50 [4] [µM] | pIC50 (A431 cells; [6]) | Structure (SMILES) | pIC50 (A431 cells; A431 cells, 72 hr, Alamar Blue; read-out: A431 IC50)
1 | 0.037 | 0.027 | 7.01 | 0.222 | 0.06 |  | C=CC(=O)Nc1cccc(Oc2nc(Nc3cnn(C)c3)ncc2-c2cncc(F)c2)c1 [Compound 184, N-(3-((5-(5-fluoropyridin-3-yl)-2-((1-methyl-1H-pyrazol-4-yl)amino)pyrimidin-4-yl)oxy)phenyl)acrylamide] | 
2 | 0.04 | 0.037 | 6.28 | 0.097 | 0.113 |  | C=CC(=O)Nc1cccc(Oc2nc(Nc3cnn(C)c3)ncc2-c2ccc(Cl)nc2)c1 [Compound 185, N-(3-((5-(6-chloropyridin-3-yl)-2-((1-methyl-1H-pyrazol-4-yl)amino)pyrimidin-4-yl)oxy)phenyl)acrylamide] | 
3 | 0.114 | 0.09 | 6.77 | 0.106 | 0.175 |  | C=CC(=O)Nc1cccc(Oc2nc(Nc3cnn(C)c3)ncc2-c2ccc(C)nc2)c1 [Compound 186, N-(3-((2-((1-methyl-1H-pyrazol-4-yl)amino)-5-(6-methylpyridin-3-yl)pyrimidin-4-yl)oxy)phenyl)acrylamide] | 
4 | 0.04 | 0.061 | 6.55 | 0.099 | 0.226 |  | C=CC(=O)Nc1cccc(Oc2nc(Nc3cnn(C)c3)ncc2-c2ccc(C(F)F)nc2)c1 [Compound 187, N-(3-((5-(6-(difluoromethyl)pyridin-3-yl)-2-((1-methyl-1H-pyrazol-4-yl)amino)pyrimidin-4-yl)oxy)phenyl)acrylamide] | 
5 | 0.108 | 0.118 | 6.67 | 0.3 | 0.269 |  | C=CC(=O)Nc1cccc(Oc2nc(Nc3cnn(C)c3)ncc2-c2ccc(OC(F)F)nc2)c1 [Compound 188, N-(3-((5-(6-(difluoromethoxy)pyridin-3-yl)-2-((1-methyl-1H-pyrazol-4-yl)amino)pyrimidin-4-yl)oxy)phenyl)acrylamide] | 
6 | 0.057 | 0.135 | 6.28 | 0.18 | 0.258 |  | C=CC(=O)Nc1cncc(Nc2nc(Nc3cnn(C)c3)ncc2-c2ccc(C(F)(F)F)cc2)c1 [Compound 195, N-(5-((2-((1-methyl-1H-pyrazol-4-yl)amino)-5-(4-(trifluoromethyl)phenyl)pyrimidin-4-yl)amino)pyridin-3-yl)acrylamide] | 
7 | 0.069 | 0.1 |  | 0.107 | 0.11 | 7.29 | C=CC(=O)Nc1ccc(F)c(Nc2nc(Nc3cnn(CCN(C)C)c3)ncc2-c2ccc(Br)cc2)c1 [Compound 203, N-(3-((5-(4-bromophenyl)-2-((1-(2-(dimethylamino)ethyl)-1H-pyrazol-4-yl)amino)pyrimidin-4-yl)amino)-4-fluorophenyl)acrylamide] | 
8 | 0.123 | 0.297 |  | 0.225 | 0.298 | 7.17 | C=CC(=O)Nc1ccc(F)c(Nc2nc(Nc3cn(CCN(C)C)nc3Cl)ncc2-c2ccc(C(F)(F)F)cc2)c1 [Compound 221, N-(3-((2-((3-chloro-1-(2-(dimethylamino)ethyl)-1H-pyrazol-4-yl)amino)-5-(4-(trifluoromethyl)phenyl)pyrimidin-4-yl)amino)-4-fluorophenyl)acrylamide] | 
9 | 0.063 | 0.063 |  | 0.041 | 0.054 | 6.96 | C=CC(=O)Nc1ccc(F)c(Nc2nc(Nc3cnn(C)c3)ncc2-c2cncs2)c1 [Compound 230, N-(4-fluoro-3-((2-((1-methyl-1H-pyrazol-4-yl)amino)-5-(thiazol-5-yl)pyrimidin-4-yl)amino)phenyl)acrylamide] | 
10 | 0.187 | 0.428 |  | 0.385 | 0.537 | 6.58 | C=CC(=O)Nc1cccc(Oc2nc(Nc3cn(C)nc3Cl)ncc2-c2ccc(C(F)(F)F)cc2)c1 [Compound 233, N-[3-({2-[(3-chloro-1-methyl-1H-pyrazol-4-yl)amino]-5-[4-(trifluoromethyl)phenyl]pyrimidin-4-yl}oxy)phenyl] prop-2-enamide] | 
11 | 0.098 | 0.101 |  | 0.101 | 0.133 | 6.89 | [2H]C([2H])([2H])n1cc(Nc2ncc(-c3ccc(C(F)(F)F)cc3)c(Nc3cc(NC(=O)C=C)ccc3F)n2)cn1 [Compound 242, N-{4-fluoro-3-[(2-{[1-(^2H3)methyl-1H-pyrazol-4-yl]amino}-5-[4-(trifluoromethyl)phenyl]pyrimidin-4-yl)amino]phenyl}prop-2-enamide] | 
12 | 0.086 | 0.123 |  | 0.144 | 0.27 | 5.52 | [2H]C([2H])=CC(=O)Nc1ccc(F)c(Nc2nc(Nc3cnn(C)c3)ncc2-c2ccc(C(F)(F)F)cc2)c1 [Compound 247, N-[4-fluoro-3-({2-[(1-methyl-1H-pyrazol-4-yl)amino]-5-[4-(trifluoromethyl)phenyl]pyrimidin-4-yl}amino)phenyl] (3,3-2H2) prop-2-enamide] | 
13 | 0.109 | 0.143 |  | 0.043 | 0.25 | 6.65 | [2H]C([2H])=CC(=O)Nc1ccc(F)c(Nc2nc(Nc3cnn(C([2H])([2H])[2H])c3)ncc2-c2ccc(C(F)(F)F)cc2)c1 [Compound 248, N-(4-fluoro-3-((2-((1-(methyl-d3)-1H-pyrazol-4-yl)amino)-5-(4-(trifluoromethyl)phenyl)pyrimidin-4-yl)amino)phenyl)acrylamide-3,3-d2] | 

Row | Structure (SMILES) | GI50 [1] [µM] | GI50 [2] [µM] | pIC50 (A431 cells; [5]) | GI50 [3] [µM] | GI50 [4] [µM] | pIC50 (A431 cells; [6]) | pIC50 (A431 cells; A431 cells, 72 hr, Alamar Blue; read-out: A431 IC50)
14 | C=CC(=O)Nc1ccc(F)c(Nc2nc(Nc3cnn(C)c3)ncc2-c2ccc(C(F)(F)F)cc2)c1 [Compound 243, N-(4-fluoro-3-((2-((1-(methyl-^13C-d3)-1H-pyrazol-4-yl)amino)-5-(4-(trifluoromethyl)phenyl)pyrimidin-4-yl)amino)phenyl)acrylamide] | 0.088 | 0.135 |  | 0.121 | 0.237 |  | 5.58
